We go through four compounds from patent publication US20240366625A1, “COMPOSITIONS CONTAINING AND THERAPIES USING BEMPEDOIC ACID AND TOLVAPTAN” (Esperion Therapeutics, Inc., priority 2021, published 2024).

Assay [1] deals with proximal tubule (PT)-derived Pkd1−/− kidney epithelial cells. Kind of assay: Cyst growth of PT-derived Pkd1−/− kidney epithelial cells in 3D cultures (Matrigel). The following applies: 10 μM forskolin+100 μM IBMX, vs vehicle (DMSO). The format is cell-based, mouse. As to the method:
The example describes cell growth inhibition studies in 3D cultures of kidney epithelial cells using either of ACLY inhibitors bempedoic acid or SB-204990. […] Cells were grown in Matrigel 12 days and treated with 10 μM forskolin+100 μM IBMX for 11 days, and then treated with either vehicle (DMSO; CON), 500 μM metformin, 100 μM ETC-1002 (bempedoic acid) or 30 μM SB-204990 either alone or in combination as shown for the last 3 days (FIG. 2A). […] Error bars indicate 95% confidence interval (CI) (*P<0.05, **P<0.01, ***P<0.001 for the indicated comparisons by one-way ANOVA and Tukey's multiple comparison test) (FIG. 2B).

Assay [2] relates to pACLY. Kind of assay: Immunoblot of liver lysates, early onset ADPKD mice: pACLY. Type of assay: in vivo, mouse. The following applies: bempedoic acid 30 mg/kg/d alone or in combination with tolvaptan 100 mg/kg/d; P22. As for the experimental part:
(§1) Doxycycline was administered intraperitoneally (50 mg/kg/day) on postnatal days 10 and 11 (P10 and P11) to induce Pkd1 deletion and rapidly progressive PKD in the Cre+ mice. Mice were treated with the various drugs and combinations or vehicle by oral gavage daily from P12-P21 and were then sacrificed at P22 of age to harvest kidneys for histology, weight measurements and blood urea nitrogen (BUN) measurements. Treatments were vehicle, tolvaptan 30 mg/kg/d, tolvaptan 100 mg/kg/d, bempedoic acid 30 mg/kg/d, tolvaptan 30 mg/kg/d+bempedoic acid 30 mg/kg/d, and tolvaptan 100 mg/kg/d+bempedoic acid 30 mg/kg/d; also included was an uninduced, untreated group without PKD. Each treatment group consisted of 3-6 mice.
(§2) Liver sample lysates were prepared in buffer and separated using SDS-PAGE. Separated proteins were then electrophoretically transferred to membranes. Nonspecific binding was blocked and membranes were probed with antibodies against pACLY, pThr172AMPKα, PGC1alpha, FATP2, pACC, and cleaved Cas3. Membranes were incubated with appropriate detection antibodies and relative signal intensity determined. Target protein levels were normalized to total protein levels.

Assay [3] deals with pThr172AMPKα. Kind of assay: Immunoblot of liver lysates, early onset ADPKD mice: pAMPK. Type of assay: in vivo, mouse. The following applies: bempedoic acid 30 mg/kg/d; P22. As for the experimental part:
as §1, §2

Assay [4] deals with phosphorylated ERK. Kind of assay: Immunoblot of kidney lysates, early onset ADPKD mice: pERK. Type of assay: in vivo, mouse. The following applies: bempedoic acid 30 mg/kg/d alone or in combination with tolvaptan; P22. As for the experimental part:
as §1
(§3) At the end of the study, kidney sample lysates were prepared in buffer and separated using SDS-PAGE. Separated proteins were then electrophoretically transferred to membranes. Nonspecific binding was blocked, and membranes were probed with antibodies against phosphorylated (Thr172)-AMPK, phosphorylated P70S6K, phosphorylated ERK, phosphorylated ACLY, total KIM-1, and total neutrophil gelatinase-associated lipocalin (NGAL). Membranes were incubated with appropriate detection antibodies and relative signal intensity determined. Protein levels were normalized to total protein levels. […] These effects of bempedoic acid occurred both alone and in combination with tolvaptan therapy.
For orientation: A western blot detects proteins with antibodies after separation by electrophoresis.

The subject of assay [5] is phosphorylated (Thr172)-AMPK. Kind of assay: Immunoblot of kidney lysates, early onset ADPKD mice: pAMPK. Type of assay: in vivo, mouse. Particulars: bempedoic acid 30 mg/kg/d alone or in combination with tolvaptan; P22. As for the experimental part: as §1, §3
Assay [6] has as its system FATP2. Kind of assay: Immunoblot of liver lysates, early onset ADPKD mice: FATP2. Type of assay: in vivo, mouse. Particulars: bempedoic acid 30 mg/kg/d alone or in combination with tolvaptan 100 mg/kg/d; P22. As for the experimental part: as §1, §2
Assay [7] deals with total KIM-1. Kind of assay: Immunoblot of kidney lysates, early onset ADPKD mice: KIM-1. Particulars: bempedoic acid 30 mg/kg/d; P22. The format is in vivo, mouse. As to the method:
as §1, §3

Assay [8] has as its system phosphorylated ACLY. The assay can be described thus: Immunoblot of kidney lysates, early onset ADPKD mice: pACLY. Type of assay: in vivo, mouse. The following applies: bempedoic acid 30 mg/kg/d alone or in combination with tolvaptan; P22. As for the experimental part:
as §1, §3

Assay [9] has as its system phosphorylated P70S6K. The assay can be described thus: Immunoblot of kidney lysates, early onset ADPKD mice: pP70S6K (mTOR pathway). Type of assay: in vivo, mouse. The following applies: bempedoic acid 30 mg/kg/d alone or in combination with tolvaptan; P22. As for the experimental part:
as §1, §3

For assay [10], the system named is late onset, slowly developing ADPKD mouse model Pkd1fl/fl;Pax8-rtTA;Tet-On-Cre. Kind of assay: Late onset, slowly developing ADPKD mouse model: kidney weight to body weight. Type of assay: in vivo. The following applies: bempedoic acid 30 mg/kg/d mixed with food from P30. As for the experimental part: The example describes characterization of the late onset, slowly developing ADPKD mouse model Pkd1fl/fl;Pax8-rtTA;Tet-On-Cre when treated with bempedoic acid.
Doxycycline was administered intraperitoneally (50 mg/kg/day) on postnatal days 27-29 (P27-P29) and again on P43 and P57 to induce later Pkd1 knockout and slowly progressive PKD in the Cre+ mice. Mice were then sacrificed at […], P60, and P120 for measurements of total kidney weight to body weight ratios.

Assay [11] deals with total neutrophil gelatinase-associated lipocalin (NGAL). The assay can be described thus: Immunoblot of kidney lysates, early onset ADPKD mice: NGAL. Type of assay: in vivo, mouse. The following applies: P22. As to the method: as §1, §3
In assay [12] the test system is pACC. Kind of assay: Immunoblot of liver lysates, early onset ADPKD mice: pACC. The format is in vivo, mouse. The following applies: bempedoic acid 30 mg/kg/d; P22. As to the method: as §1, §2
The subject of assay [13] is early onset, rapidly developing ADPKD mouse model Pkd1fl/fl;Pax8-rtTA;Tet-O-Cre. The assay can be described thus: Early onset, rapidly developing ADPKD mouse model: kidney size, kidney weight to body weight, BUN. Type of assay: in vivo. Particulars: for BUN: vehicle 107±14; for kidney size (H&E stains of kidney sections) compared to vehicle control: oral gavage daily P12-P21, P22. As for the experimental part: The example describes characterization of the early onset, rapidly developing ADPKD mouse model Pkd1fl/fl;Pax8-rtTA;Tet-O-Cre homozygous in the C57BL/6 background.
as §1

In assay [14] the test system is inner medullary collecting duct (IMCD)-derived Pkd1−/− kidney epithelial cells. The assay can be described thus: Cyst growth of IMCD-derived Pkd1−/− kidney epithelial cells in 3D cultures (Matrigel). Type of assay: cell-based, mouse. Particulars: 10 μM forskolin+100 μM IBMX. As to the method: ETC-1002 inhibited cyst growth of inner medullary collecting duct (IMCD)-derived Pkd1−/− kidney epithelial cells in 3D cultures. Cells were grown in Matrigel for 6 days and treated with 10 μM forskolin+100 μM IBMX±500 μM metformin and/or 100 μM of ETC-1002 (bempedoic acid) for the last 3 days alone or in combination as shown (FIG. 2C). […] Error bars indicate 95% CI (*P<0.05, **P<0.01, ***P<0.001 for the indicated comparisons by one-way ANOVA and Tukey's multiple comparison test) (FIG. 2D).

Molecules are shown by their SMILES.

Regarding `CC(C)(CCCCCC(O)CCCCCC(C)(C)C(=O)O)C(=O)O` [Bempedoic acid], the “cyst area relative to control” value in assay [1] (100 μM ETC-1002 for the last 3 days) and in assay [14] (100 μM ETC-1002 alone for the last 3 days) was “significantly reduced cyst area” each time. For the same compound, in assay [2], the “pACLY (activation marker) relative to total protein, liver lysate” value was “inhibited pACLY”. Further, in assay [3], the “AMPK activity (pThr172 relative to total protein), liver lysate” value is “increased AMPK activity”. Moreover, in [4], the “ERK signaling pathway (pERK relative to total protein), kidney lysate” value is “inhibited”. Also, the “AMPK activity (pThr172 relative to total protein), kidney lysate” value in assay [5] is “stimulated AMPK”. In assay [6], the “FATP2 expression relative to total protein, liver lysate” value was “increased FATP2 expression”. The “reduction of KIM-1 expression (marker of kidney injury), kidney lysate” value in assay [7] is given as > 70%. For the same compound, the “ACLY activity (pACLY relative to total protein), kidney lysate” value in [8] is given as “reduced ACLY”. Besides, the “mTOR signaling pathway (pP70S6K relative to total protein), kidney lysate” value in assay [9] is recorded as “inhibited”. Also, the “total kidney weight to body weight ratio” value in assay [10] (P60, male mice) is reported as “significantly reduced total kidney weight to body weight ratio”; in assay [10] (P120, male and female mice), “a trend that was also observed”; in [13] (bempedoic acid 30 mg/kg/d oral gavage P12-P21, P22, vehicle 11.9±1.2%) it was 6.9±0.4%. In assay [11] (bempedoic acid 30 mg/kg/d alone or in combination with tolvaptan), the “NGAL signaling pathway (NGAL relative to total protein), kidney lysate” value is given as “inhibited”. The “reduction of NGAL expression compared with reduction of KIM-1 expression, kidney lysate” value in [11] (bempedoic acid 30 mg/kg/d) was “to a lesser extent”. Also, the “phosphorylation of AMPK target ACC in liver tissue” value in assay [12] is on record as “promoted phosphorylation”. Further, the BUN in assay [13] (bempedoic acid 30 mg/kg/d oral gavage P12-P21, P22) was determined as 59 ± 13 mg/dL. Besides, in assay [13], the “kidney size (H&E stains of kidney sections) compared to vehicle control” value is “marked reduction in kidney size”.

For the compound `O=C(O)C[C@@]1(O)C[C@@H](CCCCCCc2ccc(Cl)cc2Cl)OC1=O` [SB-204990], the “cyst area relative to control” value in assay [1] (30 μM SB-204990 for the last 3 days) is “significantly reduced cyst area”.

As for `CN(C)C(=N)N=C(N)N` [metformin], the “cyst area relative to control” value in assay [1] (500 μM metformin for the last 3 days) and in assay [14] (500 μM metformin alone for the last 3 days) was “significantly reduced cyst area” in each case.

Regarding `Cc1ccccc1C(=O)Nc1ccc(C(=O)N2CCCC(O)c3cc(Cl)ccc32)c(C)c1` (centres unmarked) [tolvaptan, Tolvaptan], the “kidney size (H&E stains of kidney sections) compared to vehicle control” value in assay [13] is recorded as “marked reduction in kidney size”. Moreover, the BUN was 68 ± 8 mg/dL in assay [13] (tolvaptan 30 mg/kg/d oral gavage P12-P21, P22) and 35 ± 7 mg/dL in [13] (tolvaptan 100 mg/kg/d oral gavage P12-P21, P22). Besides, the “total kidney weight to body weight ratio” value in [13] (tolvaptan 30 mg/kg/d oral gavage P12-P21, P22, vs vehicle) is “reduced total kidney weight to body weight ratio”; in assay [13] (tolvaptan 100 mg/kg/d oral gavage P12-P21, P22, vehicle 11.9±1.2%), 7.8±1.0%.
